Holding throughout (type): in vivo, C57BL/10ScSn-Dmd^mdx/J)
In one test the test system is bone marrow MSCs. Nature of the test: Bone marrow CFU-F colony count after 6 weeks oral treatment in the mdx mouse model of DMD. Particulars: mdx mice, vs vehicle treated mdx. Here is the method: (§1) In the mdx mouse model of DMD, 5 week-old wild-type (C57BL/10SnJ) and mdx (C57BL/10ScSn-Dmd^mdx/J) mice were treated for 6 weeks and necropsied. These mice were broken into 4 orally dosed groups: a wild-type group (n=5) dosed twice daily with vehicle, an mdx group (n=8) dosed twice daily with vehicle, an mdx group (n=8) dosed once daily with 8 mg/kg of Compound 7, and an mdx group (n=8) dosed twice daily with 8 mg/kg of Compound 7. The vehicle was a 1% β-cyclodextrin in ˜pH 3 citrate buffer and the treatment 1% β-cyclodextrin in ˜pH 3 citrate buffer with Compound 7. At necropsy, the femur bone marrow was isolated and peripheral blood was harvested. The bone marrow was cultured in Mesencult™ MSC Basal Medium (mouse) supplemented with Mesencult™ MSC Stimulatory Supplement (Stemcell Technologies). CFU-F colonies of ≥50 cells were counted after 8 days in culture.
At necropsy, the femurs were also collected in a 1.5 mL microcentrifuge tube containing ˜800 μL of sterile Dulbecco's phosphate-buffered saline (DPBS) with 2% fetal bovine serum (FBS) and 2× Penicillin (Pen) and 2× Streptomycin (Strep) (DPBS/2% FBS/2× Pen/Strep) and stored on ice. […] The cell solutions were counted with a Z1 Coulter Counter (Beckman Coulter) and resuspended at 5*10^6 cells/mL. […] On day 8, the colonies of ≥50 were counted by light microscopy.

Test [1] relates to bone marrow MSCs (CD45 negative, Sca-1, CD29 & CD105 positive). Description: Flow cytometry of bone marrow for CD45 negative cells triply positive for Sca-1, CD29 & CD105, mdx mouse model. Conditions: mdx mice, 8 mg/kg oral once or twice daily, 6 weeks, vs vehicle treated mdx. As for the experimental part: as §1, with “The bone marrow was cultured in Mesencult™ MSC Basal Medium (mouse) supplemented with Mesencult™ MSC Stimulatory Supplement (Stemcell Technologies).” left out, “culture. […]” for “culture.”
(§2) During the necropsy, the blood was collected by cardiac puncture with a 1 mL syringe fitted with a 22G needle, transferred into 2 ml K3E K3EDTA VACUETTE® tubes, and stored on ice. […] The cell solutions were counted with a Z1 Coulter Counter (Beckman Coulter) and resuspended at 5*10^6 cells/mL. […] The supernatant was then removed, re-suspend in 500 μL 10% neutral buffered formalin, covered with aluminum foil, and stored at 4° C. until analyzed. Samples were then read on a LSR II flow cytometer (BD Biosciences, San Jose, Calif.). Data was analyzed using FlowJo™ V 10.0.7r2.
Background: Flow cytometry measures light scatter and fluorescence of single cells or particles in a stream.

In test [2] the test system is circulating MSCs (CD45 negative, Sca-1, CD29 & CD105 positive). Description: Flow cytometry of peripheral blood for CD45 negative cells triply positive for Sca-1, CD29 & CD105, mdx mouse model. Particulars: mdx mice, 8 mg/kg oral twice daily, 6 weeks, vs vehicle treated mdx and wild-type. As for the experimental part:
as §1, with “The bone marrow was cultured in Mesencult™ MSC Basal Medium (mouse) supplemented with Mesencult™ MSC Stimulatory Supplement (Stemcell Technologies).” left out, “culture. […]” for “culture.”
as §2

“Also recorded” adds a separate entry of the source.

As for `CCCCOC(=O)NS(=O)(=O)c1ccc(OC(F)(F)F)cc1-c1ccc(Cn2ccnc2)cn1` [Compound 7], the “Bone marrow MSC, CFU-F counts (colonies of ≥50 cells after 8 days in culture)” value in the test with bone marrow MSCs (8 mg/kg oral once daily) is reported as “significantly increased; also recorded: significant increase”; in the test on bone marrow MSCs (8 mg/kg oral twice daily), “restoring levels comparable to the non-dystrophic controls; also recorded: significant increase”. For the same molecule, in test [1], the “Percentage of CD45 negative cells triply positive for Sca-1, CD29 & CD105 in bone marrow” value was “restored the percentage of these triply positive cells to levels comparable to non-dystrophic controls; also recorded: significantly increased”. Moreover, the “Percentage of CD45 negative cells triply positive for Sca-1, CD29 & CD105 in peripheral blood (circulating MSCs)” value in test [2] was “significantly higher; also recorded: significant increase”.

Source of the values: patent US11786511B2, “Methods for increasing circulating mesenchymal stem cells” (University of Southern California, priority 2017, dated 2023).
